≈ marks a conversion by molar mass, not a printed value. Each block holds one compound with its values, some of them ahead of it.
Assays:
Toxoplasma gondii = assay: Antiparasitic activity against Toxoplasma gondii tachyzoites infected in human HeLa cells; assay type: functional, organism-based
[1] = Inhibition of human recombinant catalytic domain PDE4 (152 to 484 residues) by fluorescence polarization assay
Autotaxin = Autotaxin (Homo sapiens, UniProt Q13822); assay: Inhibition of ATX (unknown origin)
[2] = Binding affinity to PDE4 (unknown origin) expressed in Escherichia coli using cAMP as substrate assessed as inhibition constant by fluorescence polarization assay; set-up: species or system Homo sapiens
Trypanosoma cruzi = assay: Antitrypanosomal activity against Trypanosoma cruzi trypomastigotes assessed as parasite growth inhibition; assay type: functional, organism-based

- IC50 [1]: 0.003 µM
Structure (SMILES): CC(C)OCCOc1cc(C#N)cnc1Oc1ccc2c(c1)COB2O

- IC50 (Autotaxin): 0.13 µM
Structure (SMILES): O=C(OCc1cc(Cl)cc(Cl)c1)N1CCN(C2CN(C(=O)c3ccc4c(c3)COB4O)C2)CC1

- IC50 (Autotaxin): 0.013 µM
Structure (SMILES): O=C1N=C(N2CCN(Cc3ccc(B(O)O)cc3)CC2)S/C1=C/c1ccc(Cl)c(Cl)c1

- IC50 (Trypanosoma cruzi): 0.01 mg/L (≈ 0.0323 µM)
Structure (SMILES): COc1cc(C(=O)/C=C/c2ccc3c(c2)B(O)OC3)ccc1N

- IC50 [1]: 0.00032 µM
Structure (SMILES): CC(=O)CCCOc1cc(C#N)c(Cl)nc1Oc1ccc2c(c1)COB2O

More lines, now with the values behind:

Structure (SMILES): O=C(O)CCc1cccc2c1B(O)OC2
- IC50 (Toxoplasma gondii): 0.9 µM

Structure (SMILES): N#Cc1ccc(Oc2ccc3c(c2)COB3O)cc1C#N
- Ki [2]: 0.065 µM

Structure (SMILES): N#Cc1ccc(Oc2ccc3c(c2)COB3O)cc1 [CRISABOROLE]
- Ki [2]: 0.173 µM

Source: ChEMBL document CHEMBL5634093, “Elemental exchange: Bioisosteric replacement of phosphorus by boron in drug design” (Eur J Med Chem, 2023)
